Measurements as given in the Kinase Knowledgebase extract (Sharma et al. 2016).

Experiments:
EGFR (human) [1] = biological target: EGFR (human) (UniProt P00533); conditions: a431
EGFR (human) [2] = biological target: EGFR (human) (UniProt P00533); conditions: a549
EGFR (human) [3] = biological target: EGFR (human) (UniProt P00533); conditions: mcf7

Sequence of EGFR (human) (P00533 whole entry, looked up): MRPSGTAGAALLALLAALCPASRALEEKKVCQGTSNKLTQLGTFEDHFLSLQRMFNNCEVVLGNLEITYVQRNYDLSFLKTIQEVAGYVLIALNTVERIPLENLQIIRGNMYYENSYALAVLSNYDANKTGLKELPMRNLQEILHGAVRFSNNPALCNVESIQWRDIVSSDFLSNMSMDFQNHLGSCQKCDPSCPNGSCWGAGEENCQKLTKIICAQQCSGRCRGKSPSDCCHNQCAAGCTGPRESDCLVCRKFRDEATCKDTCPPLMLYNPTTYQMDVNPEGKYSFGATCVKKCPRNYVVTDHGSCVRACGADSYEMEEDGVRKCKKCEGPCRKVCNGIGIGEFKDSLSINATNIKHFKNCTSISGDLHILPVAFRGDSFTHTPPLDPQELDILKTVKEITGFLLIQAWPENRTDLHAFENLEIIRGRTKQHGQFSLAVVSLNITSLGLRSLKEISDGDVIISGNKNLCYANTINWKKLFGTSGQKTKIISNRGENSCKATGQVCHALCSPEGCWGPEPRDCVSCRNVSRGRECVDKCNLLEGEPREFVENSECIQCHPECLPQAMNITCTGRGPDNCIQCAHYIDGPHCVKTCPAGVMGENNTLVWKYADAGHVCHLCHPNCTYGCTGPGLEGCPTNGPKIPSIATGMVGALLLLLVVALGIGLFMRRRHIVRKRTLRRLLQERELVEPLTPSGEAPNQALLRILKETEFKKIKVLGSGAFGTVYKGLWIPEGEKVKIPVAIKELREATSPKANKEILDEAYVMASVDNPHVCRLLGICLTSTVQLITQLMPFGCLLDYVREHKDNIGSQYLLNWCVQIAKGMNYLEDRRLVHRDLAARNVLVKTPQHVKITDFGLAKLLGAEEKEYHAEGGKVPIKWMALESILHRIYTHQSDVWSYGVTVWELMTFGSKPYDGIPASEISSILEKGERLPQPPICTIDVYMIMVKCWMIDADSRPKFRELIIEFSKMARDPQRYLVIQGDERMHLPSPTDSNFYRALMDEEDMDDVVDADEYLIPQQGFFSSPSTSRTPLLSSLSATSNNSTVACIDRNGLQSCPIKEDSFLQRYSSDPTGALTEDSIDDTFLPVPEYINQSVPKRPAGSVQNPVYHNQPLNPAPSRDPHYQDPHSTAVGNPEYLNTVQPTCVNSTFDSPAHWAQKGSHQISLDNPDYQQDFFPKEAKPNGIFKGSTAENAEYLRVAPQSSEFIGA

IC50 (EGFR (human) [1]) | IC50 (EGFR (human) [2]) | IC50 (EGFR (human) [3]) | Compound
31.7 µM | 131 µM | 92.8 µM | O=C(Nc1ccc2ncnc(Nc3cccc(Br)c3)c2c1)c1cccc2c1OCCO2
29.7 µM | 91.6 µM | 78 µM | O=C(Nc1ccc2ncnc(Nc3cccc(Cl)c3)c2c1)C1COc2ccccc2O1 (centres undefined)
10.2 µM | 103 µM | 21.6 µM | Brc1cccc(Nc2ncnc3ccc(NCc4ccc5c(c4)OCO5)cc23)c1
19.9 µM | 67 µM | 31.9 µM | Clc1cccc(Nc2ncnc3ccc(NCc4ccc5c(c4)OCCCCO5)cc23)c1
65.3 µM | 112 µM | 152 µM | O=C(Nc1ccc2ncnc(Nc3cccc(Br)c3)c2c1)C1COc2ccccc2O1 (centres undefined)
71.1 µM | > 153 µM | 153 µM | O=C(Nc1ccc2ncnc(Nc3cccc(Cl)c3)c2c1)c1cccc2c1OCCO2
3.76 µM | 45.1 µM | 6.22 µM | Clc1cccc(Nc2ncnc3ccc(NCc4ccc5c(c4)OCCCO5)cc23)c1

More lines, now with the values behind:

Compound | IC50 (EGFR (human) [1]) | IC50 (EGFR (human) [2]) | IC50 (EGFR (human) [3])
Fc1cc(Br)ccc1Nc1ncnc2cc3c(cc12)OCCO3 | 6.28 µM | – | –
Brc1cccc(Nc2ncnc3ccc(NCc4ccc5c(c4)OCCO5)cc23)c1 | 17.1 µM | 79.5 µM | 14.6 µM
FC(F)(F)c1cccc(Nc2ncnc3cc4c(cc23)OCCO4)c1 | 0.77 µM | – | –
Cc1cccc(Nc2ncnc3cc4c(cc23)OCCO4)c1 | 0.67 µM | – | –
Brc1cccc(Nc2ncnc3cc4c(cc23)OCCO4)c1 | 0.75 µM | – | –
Brc1cccc(Nc2ncnc3ccc(NCc4ccc5c(c4)OCCCCO5)cc23)c1 | 22.4 µM | > 149 µM | 47.8 µM
Brc1cccc(Nc2ncnc3ccc(NCc4ccc5c(c4)OCCCO5)cc23)c1 | 4.03 µM | 22.6 µM | 7.31 µM
